Laboratory results: patent US10759843B2, “Method and pharmaceutical composition for use in the treatment of cancer” (priority 2012, dated 2020)
“Also recorded” adds a separate entry of the source. No end group written: not given here.

Tests used:
Prostate tumor cells = experiment: PCD induction in primary cancer cells; type: cell-based
[1] = tested on: B cells from CLL patients; experiment: Free Ca2+ mobilization, Fura-2 AM, Till photonics; type: cell-based, human; details: Fura-2 AM (FIG. 4)
Procedure: Cells, adhered in Polylysine coated glass-bottom Petri dishes, were loaded with Fura-2 AM (1 μM/30 min/37° C.). Cells were then excited by wavelengths of 340 and 380 nm and fluorescence emission of several cells was simultaneously recorded at 510 nm at a frequency of 1 Hz using a dual excitation fluorometric imaging system (TILL-Photonics) controlled by TILL-Vision software. Signals were computed into relative ratio units of the fluorescence intensity of the different wavelengths (340/380 nm). Individual fluorescence values were then analyzed with Origin software to normalize the fluorescence with the first value according to the equation (F/F0)−1, where ‘F’ is the fluorescence at specific time point and ‘F0’ is the fluorescence at time 0.

[2] = tested on: Chronic Lymphocytic Leukemia; experiment: PCD induction in primary cancer cells; type: cell-based
normal B-lymphocytes = experiment: PCD (Annexin-V-FITC) in normal B-lymphocytes; type: cell-based, human
From the text: After authorized consent forms fresh blood samples will be collected from CLL patients diagnosed according to classical morphological and immunophenotypic criteria at Pitié-Salpêtrière Hospital (Service d'Hématologie Biologique). Normal B lymphocytes will be obtained from EFS (Etablisement Français du Sang). The Institutional Ethics Committee at Pitie-Salpetriere Hospital approved the present study. Mononuclear cells were purified from blood samples using a standard Ficoll-Hypaque gradient, and B cells were positively or negatively selected by magnetic beads coupled to anti-CD19 monoclonal antibody (positive selection) or to anti-CD16, CD3, and CD14 monoclonal antibodies (negative depletion) (Miltenyi Biotech). No changes were found in the cell death response of positively or negatively selected cells. Purified B-lymphocytes were cultured in complete medium (RPMI 1640 medium supplemented with 10% fetal calf serum, 2 mM L-glutamine, and 100 U/ml penicillin-streptomycin). Unless specified, reagents were from Sigma-Aldrich. […]
We used Annexin V-FITC (BD Biosciences) for the assessment of phosphatidylserine (PS) exposure. […] Data were analyzed using FlowJo software (TreeStar).

Acute T cell leukemia = experiment: PCD induction in primary cancer cells; type: cell-based
[3] = tested on: B cells isolated from CLL patients; experiment: PCD (phosphatidylserine exposure, Annexin-V-FITC, flow cytometry) in B cells from CLL patients; type: cell-based, human
From the text: After authorized consent forms fresh blood samples will be collected from CLL patients diagnosed according to classical morphological and immunophenotypic criteria at Pitié-Salpêtrière Hospital (Service d'Hématologie Biologique). Normal B lymphocytes will be obtained from EFS (Etablisement Français du Sang). The Institutional Ethics Committee at Pitie-Salpetriere Hospital approved the present study. Mononuclear cells were purified from blood samples using a standard Ficoll-Hypaque gradient, and B cells were positively or negatively selected by magnetic beads coupled to anti-CD19 monoclonal antibody (positive selection) or to anti-CD16, CD3, and CD14 monoclonal antibodies (negative depletion) (Miltenyi Biotech). No changes were found in the cell death response of positively or negatively selected cells. Purified B-lymphocytes were cultured in complete medium (RPMI 1640 medium supplemented with 10% fetal calf serum, 2 mM L-glutamine, and 100 U/ml penicillin-streptomycin). Unless specified, reagents were from Sigma-Aldrich.
To induce cell death B-lymphocytes were cultured 1 h with the TSP-1 derived peptide 4N1K (300 μM; sequence KRFYVVMWKK, SEQ ID NO:1), the negative control peptide 4NGG (300 μM; sequence KRFYGGMWKK, SEQ ID NO:2), the newly developed peptide PKHB1 (150 μM; sequence (D)K-R-F-Y-[…]-M-W-(D)K) (formula I) or an anti-CD47 mAb (in soluble conditions or in immobilized precoated plates; 5 μg/ml; clone B6H12). Alternatively, B-cells were pre-treated for 30 min before the induction of cell death with the calcium chelator BAPTA-AM (20 μM), the caspase-inhibitor Z-VAD.fmk (50 μM).
(§1) We used Annexin V-FITC (BD Biosciences) for the assessment of phosphatidylserine (PS) exposure. Data analysis was carried out in a FACSCanto II (BD Biosciences) on the total cell population (10,000 cells). Data were analyzed using FlowJo software (TreeStar).

Marginal B cell lymphoma = experiment: PCD induction in primary cancer cells; type: cell-based
Breast carcinoma = experiment: PCD induction in primary cancer cells; type: cell-based
Mantle cell lymphoma = experiment: PCD induction in primary cancer cells; type: cell-based
Colon carcinoma = experiment: PCD induction in primary cancer cells; type: cell-based
Follicular lymphoma = experiment: PCD induction in primary cancer cells; type: cell-based
Hepatocellular carcinoma = experiment: PCD induction in primary cancer cells; type: cell-based
primary cancer cells = experiment: PCD induction in primary cancer cells (whole panel of Table 2); type: cell-based; details: primary cancer cells (Table 2)
cancer cell lines = experiment: PCD induction in cancer cell lines (whole panel of Table 1); type: cell-based; details: cancer cell lines (Table 1)
Procedure: as §1

[4] = tested on: Diffuse large B cell lymphoma; experiment: PCD induction in primary cancer cells; type: cell-based
[5] = tested on: Lymphoplasmacytic lymphoma; experiment: PCD induction in primary cancer cells; type: cell-based
Ovarian carcinoma = experiment: PCD induction in primary cancer cells; type: cell-based
AU-565 = experiment: PCD induction in cancer cell lines, Annexin V labeling; type: cell-based; details: AU-565 (Breast adenocarcinoma), 400 μM 4N1K, 1 h
Procedure: as §1

JURKAT = experiment: as above; type: cell-based; details: JURKAT (Acute T cell leukemia), 400 μM 4N1K, 1 h
Procedure: as §1

A549 = experiment: as above; type: cell-based; details: A549 (Lung carcinoma), 400 μM 4N1K, 1 h
Procedure: as §1

MDA-MB-231 = experiment: as above; type: cell-based; details: MDA-MB-231 (Adenocarcinoma), 400 μM 4N1K, 1 h
Procedure: as §1

RAMOS = experiment: as above; type: cell-based; details: RAMOS (Burkitt's lymphoma), 400 μM 4N1K, 1 h
Procedure: as §1

HELA = experiment: as above; type: cell-based; details: HELA (Cervical cancer), 400 μM 4N1K, 1 h
Procedure: as §1

RPMI 8866 = experiment: as above; type: cell-based; details: RPMI 8866 (B lymphocytic cell line), 400 μM 4N1K, 1 h
Procedure: as §1

RAJI = experiment: as above; type: cell-based; details: RAJI (Burkitt's lymphoma), 400 μM 4N1K, 1 h
Procedure: as §1

MEC-1 = experiment: as above; type: cell-based; details: MEC-1 (Chronic Lymphocytic Leukemia), 400 μM 4N1K, 1 h
Procedure: as §1

OV10 = experiment: as above; type: cell-based; details: OV10 (Ovarian Carcinoma), 400 μM 4N1K, 1 h
Procedure: as §1

RPMI 8226 = experiment: as above; type: cell-based; details: RPMI 8226 (B lymphocytic cell line), 400 μM 4N1K, 1 h
Procedure: as §1

JM-1 = experiment: as above; type: cell-based; details: JM-1 (Immunoblastic B cell lymphoma), 400 μM 4N1K, 1 h
Procedure: as §1

U937 = experiment: as above; type: cell-based; details: U937 (Diffuse histiocytic lymphoma), 400 μM 4N1K, 1 h
Procedure: as §1

LNCAP = experiment: as above; type: cell-based; details: LNCAP (Prostate cancer), 400 μM 4N1K, 1 h
Procedure: as §1

CEM = experiment: as above; type: cell-based; details: CEM (Acute lymphoblastic leukemia), 400 μM 4N1K, 1 h
Procedure: as §1

MCF-7 = experiment: as above; type: cell-based; details: MCF-7 (Breast adenocarcinoma), 400 μM 4N1K, 1 h
Procedure: as §1

HBL-100 = experiment: as above; type: cell-based; details: HBL-100 (Breast epithelial cells with transformed morphology), 400 μM 4N1K, 1 h
Procedure: as §1

Glioblastoma = experiment: PCD induction in primary cancer cells; type: cell-based
[6] = tested on: Hairy cell leucemia (HCL); experiment: PCD induction in primary cancer cells; type: cell-based
Bladder carcinoma = experiment: PCD induction in primary cancer cells; type: cell-based
Glioma = experiment: PCD induction in primary cancer cells; type: cell-based

What does the source list for KRFYVVMWKK [4N1K, K-R-F-Y-V-V-M-W-K-K]?
Cell death induction via CD47 (Prostate tumor cells): + (more than 35% of programmed cell death induction via CD47 receptor); intracellular free Ca2+ mobilization [1]: does not come back to basal level; also recorded: potent and sustained increase of calcium mobilization; Cell death induction via CD47 [2]: + (more than 35% of programmed cell death induction via CD47 receptor); cytotoxicity in normal B-lymphocytes (normal B-lymphocytes): not in normal B-lymphocytes; Cell death induction via CD47 (Acute T cell leukemia): + (more than 35% of programmed cell death induction via CD47 receptor); difference in PCD response between CLL cells with functional and non-functional TP53 ([3]; 300 μM, 1 h (FIG. 2B)): Not significant difference; cell death in CLL cells ([3]; 300 μM, 1 h, Annexin-V-FITC, cohort of 14 CLL patients (FIG. 6B)): about 45%; difference in PCD between CLL cells treated or not with caspase inhibitor ZVAD ([3]; 300 μM, 1 h, z-VAD.fmk 50 μM pre-incubation (FIG. 2A)): Not significant difference; effect of pre-treatment with calcium chelator BAPTA-AM on peptide-mediated PCD ([3]; BAPTA-AM 20 μM before PCD induction (FIG. 5, FIG. 6D)): abrogates; PCD induction in CLL primary cells (in words) ([3]; soluble peptide or mAb (FIG. 1)): induces caspase-independent PCD; Cell death induction via CD47 (Marginal B cell lymphoma): + (more than 35% of programmed cell death induction via CD47 receptor); Cell death induction via CD47 (Breast carcinoma): + (more than 35% of programmed cell death induction via CD47 receptor); Cell death induction via CD47 (Mantle cell lymphoma): + (more than 35% of programmed cell death induction via CD47 receptor); Cell death induction via CD47 (Colon carcinoma): + (more than 35% of programmed cell death induction via CD47 receptor); Cell death induction via CD47 (Follicular lymphoma): + (more than 35% of programmed cell death induction via CD47 receptor); Cell death induction via CD47 (Hepatocellular carcinoma): + (more than 35% of programmed cell death induction via CD47 receptor); cell death induction (primary cancer cells): more than 35%; cell death induction (cancer cell lines): more than 35%; Cell death induction via CD47 [4]: + (more than 35% of programmed cell death induction via CD47 receptor); Cell death induction via CD47 [5]: + (more than 35% of programmed cell death induction via CD47 receptor); Cell death induction via CD47 (Ovarian carcinoma): + (more than 35% of programmed cell death induction via CD47 receptor); Cell death induction via CD47 (AU-565): + (more than 35% of cell death induction, assessed by Annexin V labeling, after 1 h of stimulation with 400 μM of 4N1K (means of six independent experiments)); Cell death induction via CD47 (JURKAT): + (more than 35% of cell death induction, assessed by Annexin V labeling, after 1 h of stimulation with 400 μM of 4N1K (means of six independent experiments)); Cell death induction via CD47 (A549): + (more than 35% of cell death induction, assessed by Annexin V labeling, after 1 h of stimulation with 400 μM of 4N1K (means of six independent experiments)); Cell death induction via CD47 (MDA-MB-231): + (more than 35% of cell death induction, assessed by Annexin V labeling, after 1 h of stimulation with 400 μM of 4N1K (means of six independent experiments)); Cell death induction via CD47 (RAMOS): + (more than 35% of cell death induction, assessed by Annexin V labeling, after 1 h of stimulation with 400 μM of 4N1K (means of six independent experiments)); Cell death induction via CD47 (HELA): + (more than 35% of cell death induction, assessed by Annexin V labeling, after 1 h of stimulation with 400 μM of 4N1K (means of six independent experiments)); Cell death induction via CD47 (RPMI 8866): + (more than 35% of cell death induction, assessed by Annexin V labeling, after 1 h of stimulation with 400 μM of 4N1K (means of six independent experiments)); Cell death induction via CD47 (RAJI): + (more than 35% of cell death induction, assessed by Annexin V labeling, after 1 h of stimulation with 400 μM of 4N1K (means of six independent experiments)); Cell death induction via CD47 (MEC-1): + (more than 35% of cell death induction, assessed by Annexin V labeling, after 1 h of stimulation with 400 μM of 4N1K (means of six independent experiments)); Cell death induction via CD47 (OV10): + (more than 35% of cell death induction, assessed by Annexin V labeling, after 1 h of stimulation with 400 μM of 4N1K (means of six independent experiments)); Cell death induction via CD47 (RPMI 8226): + (more than 35% of cell death induction, assessed by Annexin V labeling, after 1 h of stimulation with 400 μM of 4N1K (means of six independent experiments)); Cell death induction via CD47 (JM-1): + (more than 35% of cell death induction, assessed by Annexin V labeling, after 1 h of stimulation with 400 μM of 4N1K (means of six independent experiments)); Cell death induction via CD47 (U937): + (more than 35% of cell death induction, assessed by Annexin V labeling, after 1 h of stimulation with 400 μM of 4N1K (means of six independent experiments)); Cell death induction via CD47 (LNCAP): + (more than 35% of cell death induction, assessed by Annexin V labeling, after 1 h of stimulation with 400 μM of 4N1K (means of six independent experiments)); Cell death induction via CD47 (CEM): + (more than 35% of cell death induction, assessed by Annexin V labeling, after 1 h of stimulation with 400 μM of 4N1K (means of six independent experiments)); Cell death induction via CD47 (MCF-7): + (more than 35% of cell death induction, assessed by Annexin V labeling, after 1 h of stimulation with 400 μM of 4N1K (means of six independent experiments)); Cell death induction via CD47 (HBL-100): + (more than 35% of cell death induction, assessed by Annexin V labeling, after 1 h of stimulation with 400 μM of 4N1K (means of six independent experiments)); Cell death induction via CD47 (Glioblastoma): + (more than 35% of programmed cell death induction via CD47 receptor); Cell death induction via CD47 [6]: + (more than 35% of programmed cell death induction via CD47 receptor); Cell death induction via CD47 (Bladder carcinoma): + (more than 35% of programmed cell death induction via CD47 receptor); Cell death induction via CD47 (Glioma): + (more than 35% of programmed cell death induction via CD47 receptor)
